Measurements: PMC12298827, “Subchronic Toxicities of Four Per- and Polyfluoroalkyl Substances (PFASs) by Oral Exposure in Sprague–Dawley Rats” (Toxics, 2025)

Tested on: male and female Sprague–Dawley rats
Test: 90-day subchronic oral gavage toxicity study
Format: in vivo, rat
Parameters: key to NOEL, absolute liver weight increase / LOEL, absolute liver weight increase / NOEL, relative kidney weight increase / LOEL, relative kidney weight increase / NOEL, absolute kidney weight increase / LOEL, absolute kidney weight increase / NOEL, relative liver weight increase / LOEL, relative liver weight increase: NR: no response, no statistically significant dose-dependent changes
Experimental: Subchronic (90-day) studies were performed in accordance with current U.S. EPA’s Toxic Substances Control Act Good Laboratory Practice (GLP) Standards, with the following two general exceptions to the GLP guidelines: Analysis of the dose formulations was conducted according to RTI-approved Standard Operating Procedures, and corn oil (the vehicle) was not characterized (certificate of analysis from the vendor is available in the appendices to the final reports). Male and female Sprague–Dawley rats (five dose levels plus a control, n = 10/sex/dose group, corn oil vehicle dose volume of 3 mL/kg; oral gavage) were used in these studies, and the rats were euthanized on SD 91. The dose levels for PFHI were 0, 12.5, 25, 50, 100, and 200 mg/kg-day. The dose levels for MHFPK were 0, 18.8, 37.5, 75, 150, and 300 mg/kg-day. The dose levels for PFNAC were 0, 0.1, 0.3, 1.0, 3.0, and 10 mg/kg-day for male rats and 0, 0.3, 1.0, 3.0, 10, and 30 mg/kg-day for female rats. For CTFPA, the dose levels were 0, 1.9, 3.8. 7.5, 15, and 30 mg/kg-day for male rats and 0, 6.3, 12.5, 25, 50, and 100 mg/kg-day for female rats. For each PFAS, three batches of dosing solution were prepared. The time between the batch preparation of the dosing solutions ranged between 29 and 39 days. Blood samples were collected from all the rats at termination for serum chemistry, hematology, coagulation, and the analysis of the parent PFAS chemical in the plasma. In vivo data collection and further detail on the endpoints examined postmortem are described below.
The rats were observed twice daily for morbidity and mortality throughout the study period. At least once prior to randomization to test groups and weekly thereafter, the rats were physically examined, and bodyweights were obtained. Feed consumption was quantified weekly starting on SD 1.
Neurotoxicity was evaluated using the functional observational battery (FOB) and measuring locomotor activity (LMA) 2–4 h post dosing on SDs 78–80 and 80–84, respectively. For both the 14- and 90-day studies, an ophthalmologic examination was conducted prior to randomization and near the end of the study, using indirect ophthalmoscopy and slit–lamp biomicroscopy (as needed) after the administration of a mydriatic solution.
Hematology, biochemistry, and coagulation endpoints were measured at the termination of the study. A Siemens Advia 2120i hematology analyzer (Siemens Healthineers, Erlangen, Germany) was used to measure (or calculate) the parameters related to the complete blood count, leukocyte differential count, and reticulocyte count. The hematology parameters are listed and described in Table 2. The prothrombin time […] and activated partial thromboplastin time (APTT) were measured using an Instrumentation Laboratory (Bedford, MA, USA) ACL Elite Pro coagulation analyzer (laser–nephelometric centrifugal method).
At necropsy, the rats were visually examined for external abnormalities and organ weights (absolute and relative to the BW and brain weight), which were recorded (paired organs weighed together). The tissues were preserved in 10% neutral buffered formalin (NBF), except for the ocular tissues, testes, and epididymides, which were preserved in modified Davidson’s fixative and later transferred to 10% NBF. Bone marrow smears were prepared from the femurs, and the slides were air-dried, fixed in methanol, stained, and stored at room temperature for possible future evaluation. The preserved tissues were embedded in paraffin, sectioned, stained with hematoxylin and eosin, and examined by a board-certified veterinary pathologist.
Statistical analysis was performed using Provantis™ Version 10 or greater (Instem LSS, Limited; Stone, Staffordshire, UK). Differences among the treatment groups compared to the control were evaluated using one-way analysis of variance (ANOVA) if the underlying assumptions of a normal distribution (Shapiro–Wilk test) and the homogeneity of the variance (Levene’s test) were satisfied. […]

Q: What does the source list for `O=C(O)C(F)(Cl)C(F)(F)F` (stereo not shown) [CTFPA, 2-Chloro-2,3,3,3-tetrafluoropropanoic acid]?
A: Bodyweight (BW) and bodyweight gain (90-day, both sexes, all doses): None CTPFA related; Clinical chemistry (90-day, both sexes, all doses): From minimal to mild increases in albumin and the A/G ratio in males at ≥7.5 mg/kg-day and in females at ≥50 mg/kg; only in males—from minimal to mild decreases in globulin at ≥7.5 mg/kg-day; from minimal to mild increases in ALPi at ≥7.5 mg/kg-day, and minimally increased BUN at 30 mg/kg-day; Clinical observations (90-day, both sexes, all doses): None; Coagulation endpoints (90-day, both sexes, all doses): From minimal to mild dose-dependent decreased APTT in males at ≥3.8 mg/kg; no effect in females; Feed consumption (90-day, both sexes, all doses): Significant non-adverse increases in males at ≥3.8 mg/kg-day; minor effects in females, not considered as CTFPA related; Functional observational battery (90-day, both sexes, all doses): No changes; Gross lesions (90-day, both sexes, all doses): None considered as CTFPA related; Hematology (90-day, both sexes, all doses): From minimal to mild decreases in red cell mass (RBC, HCT, and HGB) and increases in RDW in males at ≥7.5 mg/kg-day; no similar effect in females; from minimal to mild increased MPV in males at ≥3.8 mg/kg-day and in females at ≥50 mg/kg-day; Histopathology (90-day, both sexes, all doses): The liver of males and females; the heart and nasal turbinates of males; Locomotor activity (90-day, both sexes, all doses): No effects; Morbidity and mortality (90-day, both sexes, all doses): None; Ophthalmology (90-day, both sexes, all doses): No ocular lesions; Organ weight changes (90-day, both sexes, all doses): Mean absolute and/or relative liver weight increases in males at ≥3.8 mg/kg-day and in females at ≥25 mg/kg-day ^6; mean thymus weights increased in males at ≥15 mg/kg-day; mean kidney weights increased in females at ≥50 mg/kg-day; BMD10, absolute liver weight increase (female): 13.6 mg/kg-day; BMDL, absolute liver weight increase (female): 5.1 mg/kg-day; LOEL, absolute kidney weight increase (female): NR; LOEL, absolute liver weight increase (female): 25 mg/kg-day; LOEL, relative kidney weight increase (female): NR; LOEL, relative liver weight increase (female): 25 mg/kg-day; NOEL, absolute kidney weight increase (female): NR; NOEL, absolute liver weight increase (female): 12.5 mg/kg-day; NOEL, relative kidney weight increase (female): NR; NOEL, relative liver weight increase (female): 12.5 mg/kg-day; A/G (female, 1.9 mg/kg-day): 1.10±0.09 ratio; ALB (female, 1.9 mg/kg-day): 4.07 ± 0.31 g/dL; ALPi (female, 1.9 mg/kg-day): 49.7±22.7 U/L; BUN (female, 1.9 mg/kg-day): 16.4 ± 3.6 mg/dL; CHOL (female, 1.9 mg/kg-day): 94.7 ± 23.9 mg/dL; GLOB (female, 1.9 mg/kg-day): 3.69 ± 0.19 g/dL; GLUC (female, 1.9 mg/kg-day): 140.7 ± 21.5 mg/dL; A/G (female, 3.8 mg/kg-day): 1.17±0.10 ratio; ALB (female, 3.8 mg/kg-day): 4.41 ± 0.33 g/dL; ALPi (female, 3.8 mg/kg-day): 56.6±19.8 U/L; BUN (female, 3.8 mg/kg-day): 16.5 ± 3.0 mg/dL; CHOL (female, 3.8 mg/kg-day): 95.9 ± 14.5 mg/dL; GLOB (female, 3.8 mg/kg-day): 3.78 ± 0.20 g/dL; GLUC (female, 3.8 mg/kg-day): 133.0 ± 25.5 mg/dL; % BW Gain (female, 6.3 mg/kg-day): 59.29%; % Diff, % BW Gain (female, 6.3 mg/kg-day): 12.55%; % Diff, Total BW change (female, 6.3 mg/kg-day): 13.40%; % Diff, Total Food Consumed (female, 6.3 mg/kg-day): 8.28%; APTT (female, 6.3 mg/kg-day): 17.76 s; HCT (female, 6.3 mg/kg-day): 47.57±2.23%; HGB (female, 6.3 mg/kg-day): 15.03 ± 0.80 g/dL; Kidney Weight (female, 6.3 mg/kg-day): 1.91 g; Kidney/Body Weight (female, 6.3 mg/kg-day): 0.57%; Kidney/Brain Weight (female, 6.3 mg/kg-day): 95.5%; Liver Weight (female, 6.3 mg/kg-day): 8.76 g; Liver/Body Weight (female, 6.3 mg/kg-day): 2.59%; Liver/Brain Weight (female, 6.3 mg/kg-day): 437%; MPV (female, 6.3 mg/kg-day): 7.57 ± 0.49 fL; PT (female, 6.3 mg/kg-day): 14.58 s; Total BW change (female, 6.3 mg/kg-day): 129.35 g; Total Food Consumed (female, 6.3 mg/kg-day): 1671 g; A/G (female, 7.5 mg/kg-day): 1.18±0.14 ratio; ALB (female, 7.5 mg/kg-day): 4.36 ± 0.42 g/dL; ALPi (female, 7.5 mg/kg-day): 54.6±16.8 U/L; BUN (female, 7.5 mg/kg-day): 16.4 ± 2.4 mg/dL; CHOL (female, 7.5 mg/kg-day): 98.2 ± 26.4 mg/dL; GLOB (female, 7.5 mg/kg-day): 3.70 ± 0.28 g/dL; GLUC (female, 7.5 mg/kg-day): 143.6 ± 21.3 mg/dL; % BW Gain (female, 12.5 mg/kg-day): 56.17%; % Diff, % BW Gain (female, 12.5 mg/kg-day): 6.64%; % Diff, Total BW change (female, 12.5 mg/kg-day): 5.12%; % Diff, Total Food Consumed (female, 12.5 mg/kg-day): 1.02%; APTT (female, 12.5 mg/kg-day): 16.20 s; HCT (female, 12.5 mg/kg-day): 45.99±2.31%; HGB (female, 12.5 mg/kg-day): 14.52 ± 0.79 g/dL; Kidney Weight (female, 12.5 mg/kg-day): 1.97 g; Kidney/Body Weight (female, 12.5 mg/kg-day): 0.60%; Kidney/Brain Weight (female, 12.5 mg/kg-day): 93.7%; Liver Weight (female, 12.5 mg/kg-day): 8.97 g; Liver/Body Weight (female, 12.5 mg/kg-day): 2.71%; Liver/Brain Weight (female, 12.5 mg/kg-day): 428%; MPV (female, 12.5 mg/kg-day): 8.00 ± 0.97 fL; PT (female, 12.5 mg/kg-day): 14.17 s; Total BW change (female, 12.5 mg/kg-day): 119.91 g; Total Food Consumed (female, 12.5 mg/kg-day): 1559 g; A/G (female, 15 mg/kg-day): 1.19±0.08 ratio; ALB (female, 15 mg/kg-day): 4.46 ± 0.44 g/dL; ALPi (female, 15 mg/kg-day): 57.7±20.2 U/L; BUN (female, 15 mg/kg-day): 16.3 ± 2.3 mg/dL; CHOL (female, 15 mg/kg-day): 96.5 ± 26.2 mg/dL; GLOB (female, 15 mg/kg-day): 3.73 ± 0.20 g/dL; GLUC (female, 15 mg/kg-day): 154.6 ± 21.6 mg/dL; % BW Gain (female, 25 mg/kg-day): 53.36%; % Diff, % BW Gain (female, 25 mg/kg-day): 1.29%; % Diff, Total BW change (female, 25 mg/kg-day): 1.52%; % Diff, Total Food Consumed (female, 25 mg/kg-day): 2.96%; APTT (female, 25 mg/kg-day): 21.82 s; HCT (female, 25 mg/kg-day): 46.61±2.96%; HGB (female, 25 mg/kg-day): 14.62 ± 1.04 g/dL; Kidney Weight (female, 25 mg/kg-day): 1.97 g; Kidney/Body Weight (female, 25 mg/kg-day): 0.60%; Kidney/Brain Weight (female, 25 mg/kg-day): 95.0%; Liver Weight (female, 25 mg/kg-day): 9.97 g; Liver/Body Weight (female, 25 mg/kg-day): 3.02%; Liver/Brain Weight (female, 25 mg/kg-day): 483%; MPV (female, 25 mg/kg-day): 7.65 ± 0.50 fL; PT (female, 25 mg/kg-day): 14.34 s; Total BW change (female, 25 mg/kg-day): 115.80 g; Total Food Consumed (female, 25 mg/kg-day): 1589 g; A/G (female, 30 mg/kg-day): 1.22±0.07 ratio; ALB (female, 30 mg/kg-day): 4.62 ± 0.45 g/dL; ALPi (female, 30 mg/kg-day): 74.1±17.5 U/L; BUN (female, 30 mg/kg-day): 18.3 ± 2.5 mg/dL; CHOL (female, 30 mg/kg-day): 101.9 ± 15.8 mg/dL; GLOB (female, 30 mg/kg-day): 3.77 ± 0.25 g/dL; GLUC (female, 30 mg/kg-day): 153.4 ± 21.2 mg/dL; % BW Gain (female, 50 mg/kg-day): 51.94%; % Diff, % BW Gain (female, 50 mg/kg-day): -1.40%; % Diff, Total BW change (female, 50 mg/kg-day): -0.34%; % Diff, Total Food Consumed (female, 50 mg/kg-day): 2.22%; APTT (female, 50 mg/kg-day): 17.22 s; HCT (female, 50 mg/kg-day): 45.75±1.73%; HGB (female, 50 mg/kg-day): 14.30 ± 0.57 g/dL; Kidney Weight (female, 50 mg/kg-day): 2.07 g; Kidney/Body Weight (female, 50 mg/kg-day): 0.63%; Kidney/Brain Weight (female, 50 mg/kg-day): 102%; Liver Weight (female, 50 mg/kg-day): 10.49 g; Liver/Body Weight (female, 50 mg/kg-day): 3.21%; Liver/Brain Weight (female, 50 mg/kg-day): 520%; MPV (female, 50 mg/kg-day): 8.10 ± 0.46 fL; PT (female, 50 mg/kg-day): 14.57 s; Total BW change (female, 50 mg/kg-day): 113.68 g; Total Food Consumed (female, 50 mg/kg-day): 1577 g; % BW Gain (female, 100 mg/kg-day): 49.85%; % Diff, % BW Gain (female, 100 mg/kg-day): -5.37%; % Diff, Total BW change (female, 100 mg/kg-day): -5.90%; % Diff, Total Food Consumed (female, 100 mg/kg-day): 4.68%; APTT (female, 100 mg/kg-day): 21.23 s; HCT (female, 100 mg/kg-day): 46.76±2.13%; HGB (female, 100 mg/kg-day): 14.60 ± 0.66 g/dL; Kidney Weight (female, 100 mg/kg-day): 2.05 g; Kidney/Body Weight (female, 100 mg/kg-day): 0.65%; Kidney/Brain Weight (female, 100 mg/kg-day): 104%
